Data: patent US9206123B2, “Prodrugs of inhibitors of plasma kallikrein” (ActiveSite Pharmaceuticals, Inc., priority 2009, dated 2015)
“Also recorded” adds a separate entry of the source. Non-standard residues stand in square brackets, D forms with d. *: point of attachment. CH2Cl = ClC*

Experiments:
hemorrhagic stroke = conditions: model of hemorrhagic stroke; cited from earlier work
[1] = system: retinal vascular permeability; conditions: angiotensin-II-treated rodents; Phipps et al. 2009; cited from earlier work
ischemic stroke = conditions: rat model of ischemic stroke; cited from earlier work
[2] = system: retinal vascular permeability; experiment: Angiotensin-II infusion model, retinal vascular permeability by vitreous fluorescein fluorophotometry; type: in vivo, Sprague-Dawley rats; conditions: twice-daily oral gavage for five days
Source text: Continuous infusion of the vasoconstrictor peptide angiotensin-II in Sprague-Dawley rats over 3-7 days using subcutaneously implanted Alzet minipumps results in elevated blood pressure, and is accompanied by increased retinal vascular permeability, which can be measured using the technique of vitreous fluorescein fluorophotometry, as described in the prior art (Clermont, A. C., et al (2006) Invest Ophthalmol V is Sci.; 47: 2701-8). […] Inhibition of the excess retinal vascular permeability in this animal model following administration of compounds of the present invention via oral, subcutaneous, topical or intravitreal routes thus provides evidence of inhibition of plasma kallikrein in vivo.

[3] = biological target: T1, Human plasma kallikrein (PK) (Homo sapiens, UniProt P03952); experiment: Human plasma kallikrein (PK) enzymatic inhibition assay, substrate H-D-Pro-Phe-Arg-pNA; type: biochemical; conditions: corrected Ki from Ki,app; 2 nM PK, 0.05 M HEPES pH 7.5, Km 0.33 mM
T1 construct: purchased Enzyme Research Laboratories (Gary, Ind.)
Description: Human plasma kallikrein (PK) was obtained from Enzyme Research Laboratories (Gary, Ind.). The enzymatic activity of PK was assayed using the synthetic peptide substrate H-D-Pro-Phe-Arg-pNA (Bachem, Peninsula City, Calif.) with the cleavage of the substrate by the enzyme resulting in an increase in A405, measured using a Molecular Devices Vmax Kinetic Microplate Reader. The uninhibited (control) activity of PK was determined by adding 190 μl of PK solution (2 nM in 0.05 M HEPES, pH 7.5, 0.01% Triton X-100) to 10 μl of H-D-Pro-Phe-Arg-pNA (2 mM in DMSO) in individual microtiter plate wells, mixed immediately by shaking, and the rate of increase in absorbance at 405 nm (A405) determined over 120-180 sec. In parallel, compounds of general formula V were mixed in separate wells with the synthetic substrate to attain final concentrations of between 0.01-10 μM in the final 200 μl reaction mixture, and the reaction initiated by the addition of 190 μl of the PK solution. A diminished rate of cleavage in the presence of a compound of general formula V denotes inhibition of PK activity, and the apparent inhibition constant (Ki,app) of the interaction can be determined by using the following equation— Ki,app=[I]/(PKControl/PKI−1) where [I]=concentration of inhibitory compound, PKcontrol=rate of substrate cleavage by uninhibited PK, PKI=rate of substrate cleavage by PK in the presence of inhibitory compound.
The corrected Ki of the interaction can be obtained as follows from the calculated Ki,app— Ki=Ki,app/([S]/Km+1) Where [S]=concentration of synthetic substrate, and Km=Michaelis constant of synthetic substrate for PK, in this case determined experimentally to be 0.33 mM under these conditions.

arthritis = conditions: rat models of arthritis; cited from earlier work
hereditary angioedema = conditions: patients with hereditary angioedema; cited from earlier work
sepsis [4] = conditions: LPS or bacterial induced sepsis in animals; cited from earlier work
[5] = system: middle cerebral artery occlusion; conditions: mouse model of middle cerebral artery occlusion; cited from earlier work
sepsis [6] = conditions: sepsis patients; cited from earlier work

T1 sequence (P03952 391-638 limits assumed): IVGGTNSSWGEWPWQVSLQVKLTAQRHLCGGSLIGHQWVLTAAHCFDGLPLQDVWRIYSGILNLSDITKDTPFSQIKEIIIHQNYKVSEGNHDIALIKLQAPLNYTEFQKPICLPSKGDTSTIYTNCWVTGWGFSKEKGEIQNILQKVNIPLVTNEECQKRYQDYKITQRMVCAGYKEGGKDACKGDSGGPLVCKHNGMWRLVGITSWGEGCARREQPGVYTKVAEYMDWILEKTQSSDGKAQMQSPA
T1 sequence (P03952 20-390 partner limits assumed): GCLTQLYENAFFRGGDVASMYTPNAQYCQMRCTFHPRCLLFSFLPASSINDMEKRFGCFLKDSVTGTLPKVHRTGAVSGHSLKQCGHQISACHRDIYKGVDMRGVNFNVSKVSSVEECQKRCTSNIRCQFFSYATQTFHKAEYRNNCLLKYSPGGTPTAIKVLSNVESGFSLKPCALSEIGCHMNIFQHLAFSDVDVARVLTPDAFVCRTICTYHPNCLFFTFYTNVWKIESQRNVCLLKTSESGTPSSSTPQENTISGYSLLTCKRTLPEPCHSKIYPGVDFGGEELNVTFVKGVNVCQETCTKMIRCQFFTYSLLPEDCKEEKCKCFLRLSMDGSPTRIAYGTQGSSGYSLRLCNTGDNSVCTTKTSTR

N=C(N)c1ccc(CNC(=O)c2cnn(Cc3ccccc3)c2)cc1 [ASP-440]
effect on expansion of intracerebral hemorrhage (hemorrhagic stroke): reduce | effect on retinal vascular permeability [1]: reduce retinal vascular permeability; also recorded: effective in reducing retinal vascular permeability | effect on infarction volume and cerebrovascular edema (ischemic stroke): reduce infarction volume and cerebrovascular edema

COC(=O)/N=C(\N)c1ccc(CNC(=O)c2cc(C)n(-c3ccc(F)cc3)c2C)cc1 [Example 4, (Z)-methyl amino-(4-((1-(4-fluorophenyl)-2,5-dimethyl-pyrrole-3-carbonylamino)methyl)phenyl)methylenecarbamate]
reduction of retinal vascular permeability [2]: 55%

Cc1cc(C(=O)NCc2ccc(C(=N)N)cc2)c(C)n1-c1ccc(F)cc1 [Example 11, N-[(4-carbamimidoylphenyl)methyl]-1-(4-fluorophenyl)-2,5-dimethyl-pyrrole-3-carboxamide]
Ki [3]: 13 nM

Cc1cc(C(=O)NCc2ccc(C(=N)N)cc2)c(C)n1-c1ccc(Cl)cc1 [Example 12, N-[(4-carbamimidoylphenyl)methyl]-1-(4-chlorophenyl)-2,5-dimethyl-pyrrole-3-carboxamide]
Ki [3]: 7 nM

COc1ccc(-n2c(C)cc(C(=O)NCc3ccc(C(=N)N)cc3)c2C)cc1 [Example 13, N-[(4-carbamimidoylphenyl)methyl]-1-(4-methoxyphenyl)-2,5-dimethyl-pyrrole-3-carboxamide]
Ki [3]: 17 nM

Cc1cc(C(=O)NCc2ccc(C(=N)N)cc2)c(C)n1-c1ccc2c(c1)OCCO2 [N-[(4-carbamimidoylphenyl)methyl]-1-(2,3-dihydro-1,4-benzodioxin-6-yl)-2,5-dimethyl-pyrrole-3-carboxamide]
Ki [3]: 14 nM

Cc1cc(C(=O)NCc2ccc(C(=N)N)cc2)c(C)n1-c1ccccn1 [N-[(4-carbamimidoylphenyl)methyl]-2,5-dimethyl-1-(2-pyridyl)pyrrole-3-carboxamide]
Ki [3]: 35 nM

Cc1cc(C(=O)NCc2ccc(C(=N)N)cc2)c(C)n1-c1cccnc1 [N-[(4-carbamimidoylphenyl)methyl]-2,5-dimethyl-1-(3-pyridyl)pyrrole-3-carboxamide]
Ki [3]: 46 nM

Cc1cc(C(=O)NCc2ccc(C(=N)N)cc2)c(C)n1-c1nccs1 [N-[(4-carbamimidoylphenyl)methyl]-2,5-dimethyl-1-thiazol-2-yl-pyrrole-3-carboxamide]
Ki [3]: 68 nM

Cl.NCC1CCC(C(=O)N[C@@H](Cc2ccccc2)C(=O)Nc2ccc(CC(=O)O)cc2)CC1 (stereo partly drawn) [PKSI-527]
effect on joint swelling (arthritis): reduce joint swelling

NC(N)=NCCC[C@@H](N)C(=O)N[C@@H](CCCN=C(N)N)C(=O)N1CCC[C@H]1C(=O)N1C[C@H](O)C[C@H]1C(=O)NCC(=O)N[C@@H](Cc1cccs1)C(=O)N[C@@H](CO)C(=O)N1Cc2ccccc2C[C@@H]1C(=O)N1[C@H](C(=O)N[C@@H](CCCN=C(N)N)C(=O)O)C[C@@H]2CCCC[C@@H]21 [icatibant]
effect on edema / hereditary angioedema (hereditary angioedema): effective in treating hereditary angioedema

H-[dP]-Phe-Arg-CH2Cl [reference compound]
effect on vascular permeability and lesions (sepsis [4]): reduce vascular permeability in multiple organs and reduce lesions

Hoe-140
effect on retinal vascular permeability [1]: reduce retinal vascular permeability

B1: C1-INH: the major endogenous inhibitor of PK (protein, UniProt P05155 23-500, looked up)
Plasma protease C1 inhibitor: NPNATSSSSQDPESLQDRGEGKVATTVISKMLFVEPILEVSSLPTTNSTTNSATKITANTTDEPTTQPTTEPTTQPTIQPTQPTTQLPTDSPTQPTTGSFCPGPVTLCSDLESHSTEAVLGDALVDFSLKLYHAFSAMKKVETNMAFSPFSIASLLTQVLLGAGENTKTNLESILSYPKDFTCVHQALKGFTTKGVTSVSQIFHSPDLAIRDTFVNASRTLYSSSPRVLSNNSDANLELINTWVAKNTNNKISRLLDSLPSDTRLVLLNAIYLSAKWKTTFDPKKTRMEPFHFKNSVIKVPMMNSKKYPVAHFIDQTLKAKVGQLQLSHNLSLVILVPQNLKHRLEDMEQALSPSVFKAIMEKLEMSKFQPTLLTLPRIKVTTSQDMLSIMEKLEFFDFSYDLNLCGLTEDPDLQVSAMQHQTVLELTETGVEAAAASAISVARTLLVFEVQQPFLFVLWDQQHKFPVFMGRVYDPRA
effect on infarct size [5]: reduced infarct size | effect on vascular permeability and lesions (sepsis [4]): reduce vascular permeability in multiple organs and reduce lesions | clinical outcome (sepsis [6]): Clinical improvement
